Columns and labels:
[1] = biological target: T1, recombinant guanylate cyclase reporter cell line (Rattus norvegicus, UniProt P19686+P20595); experiment: Action on recombinant guanylate cyclase reporter cell line; assay type: cell-based
T1 construct: expressed in transfected cells
T1 sequence (P20595 1-619): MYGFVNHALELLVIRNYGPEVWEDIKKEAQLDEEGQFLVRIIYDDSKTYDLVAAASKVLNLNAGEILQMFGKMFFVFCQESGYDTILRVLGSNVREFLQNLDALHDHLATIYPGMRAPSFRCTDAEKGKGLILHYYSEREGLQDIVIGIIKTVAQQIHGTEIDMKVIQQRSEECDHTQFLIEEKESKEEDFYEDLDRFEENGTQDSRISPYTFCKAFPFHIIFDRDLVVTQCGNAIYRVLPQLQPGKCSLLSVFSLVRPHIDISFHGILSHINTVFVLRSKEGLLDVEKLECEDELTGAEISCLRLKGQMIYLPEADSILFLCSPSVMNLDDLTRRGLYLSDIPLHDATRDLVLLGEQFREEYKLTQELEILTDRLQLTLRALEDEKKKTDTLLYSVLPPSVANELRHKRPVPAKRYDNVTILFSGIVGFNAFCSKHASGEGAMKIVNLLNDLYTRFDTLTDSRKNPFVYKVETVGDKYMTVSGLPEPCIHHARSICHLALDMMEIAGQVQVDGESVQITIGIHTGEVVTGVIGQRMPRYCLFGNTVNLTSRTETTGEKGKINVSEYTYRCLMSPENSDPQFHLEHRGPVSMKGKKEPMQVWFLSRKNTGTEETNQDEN
T1 sequence (P19686 1-690): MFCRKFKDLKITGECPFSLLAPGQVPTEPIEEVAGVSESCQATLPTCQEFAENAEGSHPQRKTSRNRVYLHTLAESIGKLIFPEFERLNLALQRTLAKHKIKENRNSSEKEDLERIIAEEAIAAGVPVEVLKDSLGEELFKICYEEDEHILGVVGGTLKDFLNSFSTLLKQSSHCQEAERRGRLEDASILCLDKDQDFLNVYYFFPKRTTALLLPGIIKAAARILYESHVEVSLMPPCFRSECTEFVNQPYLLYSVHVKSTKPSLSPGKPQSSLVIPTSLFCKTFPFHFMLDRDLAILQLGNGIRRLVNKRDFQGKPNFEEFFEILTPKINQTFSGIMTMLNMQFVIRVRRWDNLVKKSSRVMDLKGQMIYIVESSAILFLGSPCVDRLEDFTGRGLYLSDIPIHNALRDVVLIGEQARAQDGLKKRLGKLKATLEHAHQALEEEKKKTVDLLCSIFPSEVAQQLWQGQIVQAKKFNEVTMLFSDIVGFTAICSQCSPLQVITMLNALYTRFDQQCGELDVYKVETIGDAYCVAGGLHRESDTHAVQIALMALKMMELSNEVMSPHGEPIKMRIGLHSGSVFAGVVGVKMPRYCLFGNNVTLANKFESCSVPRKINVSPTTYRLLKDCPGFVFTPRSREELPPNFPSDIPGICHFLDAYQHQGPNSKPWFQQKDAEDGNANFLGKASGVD
Description: B-2. Action on Recombinant Guanylate Cyclase Reporter Cell Line
The cellular action of the compounds according to the invention is determined on a recombinant guanylate cyclase reporter cell line, as described in F. Wunder et al., Anal. Biochem. 339, 104-112 (2005).

[2] = tested on: aorta; experiment: Vessel-relaxing action in vitro (phenylephrine-contracted aorta rings); conditions: Oryctolagus cuniculus; rabbit aorta rings, phenylephrine contraction; concentration reducing control contraction by 50%
Description: B-1. Vessel-Relaxing Action In Vitro
Rabbits are stunned with a blow on the back of the neck and exsanguinated. The aorta is removed, freed from adhering tissue, separated into rings with a width of 1.5 mm, and placed individually, with preloading, in 5-ml organ baths with carbogen-gassed Krebs-Henseleit solution at 37° C. with the following composition (mM in each case): sodium chloride: 119; potassium chloride: 4.8; calcium chloride dihydrate: 1; magnesium sulphate heptahydrate: 1.4; potassium dihydrogen phosphate: 1.2; sodium hydrogen carbonate: 25; glucose: 10. The contraction force is recorded with Statham UC2 cells, amplified and digitized via an A/D converter (DAS-1802 HC, Keithley Instruments Munich) and recorded in parallel on a continuous-line recorder. To produce contraction, phenylephrine is added to the bath cumulatively in increasing concentration. After several control cycles, the test substance is added in increasing dosage in each subsequent pass and the level of contraction is compared with the level of contraction reached in the immediately preceding pass. This is used for calculating the concentration that is required to reduce the level of the control value by 50% (IC50 value). The standard application volume is 5 μl, and the proportion of DMSO in the bath solution corresponds to 0.1%.

Row | Structure (SMILES) | MEC (minimal effective concentration) [1] | IC50 [2]
1 | COC(=O)C(C)(C)c1nnc(-c2nn(Cc3ccc(F)cc3F)c3ncccc23)nc1O [Example 77A, Methyl 2-{3-[1-(2,4-difluorobenzyl)-1H-pyrazolo[3,4-b]pyridin-3-yl]-5-hydroxy-1,2,4-triazin-6-yl}-2-methylpropanoate] | 1.0 µM | 
2 | O=C1Nc2nc(-c3nn(Cc4ccccc4F)c4ncccc34)ncc2C12CCOC2 (stereo not shown) [Example 3, 2′-[1-(2-Fluorobenzyl)-1H-pyrazolo[3,4-b]pyridin-3-yl]-4,5-dihydrospiro[furan-3,5′-pyrrolo[2,3-d]pyrimidin]-6′(7′H)-one] | 0.03 µM | 
3 | CC1(C)C(=O)Nc2nc(-c3nn(Cc4cccc(F)c4F)c4ncc(F)cc34)nnc21 [Example 20, 3-[1-(2,3-Difluorobenzyl)-5-fluoro-1H-pyrazolo[3,4-b]pyridin-3-yl]-7,7-dimethyl-5,7-dihydro-6H-pyrrolo[2,3-e][1,2,4]triazin-6-one] | 0.03 µM | 0.045 µM
4 | CC1(C)C(=O)Nc2nc(-c3nn(Cc4ccccc4F)c4ncccc34)nc(C(F)F)c21 [Example 7, 4-(Difluoromethyl)-2-[1-(2-fluorobenzyl)-1H-pyrazolo[3,4-b]pyridin-3-yl]-5,5-dimethyl-5,7-dihydro-6H-pyrrolo[2,3-d]pyrimidin-6-one] | 0.03 µM | 0.045 µM
5 | O=C1Nc2nc(-c3nn(Cc4cccc(F)c4F)c4ncccc34)ncc2C12CC2 [Example 10, 2′-[1-(2,3-Difluorobenzyl)-1H-pyrazolo[3,4-b]pyridin-3-yl]spiro[cyclopropane-1,5′-pyrrolo[2,3-d]pyrimidin]-6′(7′H)-one] | 0.03 µM | 0.006 µM
6 | O=C1Nc2nc(-c3nn(Cc4ccccc4F)c4ncc(F)cc34)ncc2C12CC2 [Example 30, 2′-[5-Fluoro-1-(2-fluorobenzyl)-1H-pyrazolo[3,4-b]pyridin-3-yl]spiro[cyclopropane-1,5′-pyrrolo[2,3-d]pyrimidin]-6′(7′H)-one] | 0.03 µM | 0.097 µM
7 | O=C1Cc2cnc(-c3nn(Cc4ccccc4F)c4ncccc34)nc2N1 [Example 4, 2-[1-(2-Fluorobenzyl)-1H-pyrazolo[3,4-b]pyridin-3-yl]-5,7-dihydro-6H-pyrrolo[2,3-d]pyrimidin-6-one] | 0.03 µM | 
8 | O=C1Nc2nc(-c3nn(Cc4ccccc4F)c4ncccc34)ncc2C1(O)c1ccccc1 (stereo not shown) [Example 22, 2-[1-(2-Fluorobenzyl)-1H-pyrazolo[3,4-b]pyridin-3-yl]-5-hydroxy-5-phenyl-5,7-dihydro-6H-pyrrolo[2,3-d]pyrimidin-6-one] | 0.03 µM | 
9 | CC1(C)C(=O)Nc2nc(-c3nn(Cc4ccc(F)cc4F)c4ncccc34)nnc21 [Example 28, 3-[1-(2,4-Difluorobenzyl)-1H-pyrazolo[3,4-b]pyridin-3-yl]-7,7-dimethyl-5,7-dihydro-6H-pyrrolo[2,3-e][1,2,4]triazin-6-one] | 0.3 µM | 0.103 µM
10 | CC1(C)C(=O)Nc2nc(-c3nn(Cc4ccc(F)cc4F)c4ncccc34)ncc21 [Example 13, 2-[1-(2,4-Difluorobenzyl)-1H-pyrazolo[3,4-b]pyridin-3-yl]-5,5-dimethyl-5,7-dihydro-6H-pyrrolo[2,3-d]pyrimidin-6-one] | 0.1 µM | 
11 | CC1(C)C(=O)Nc2nc(-c3nn(Cc4ccc(F)cc4F)c4ncc(F)cc34)nnc21 [Example 21, 3-[1-(2,4-Difluorobenzyl)-5-fluoro-1H-pyrazolo[3,4-b]pyridin-3-yl]-7,7-dimethyl-5,7-dihydro-6H-pyrrolo[2,3-e][1,2,4]triazin-6-one] | 0.1 µM | 
12 | CC1(O)C(=O)Nc2nc(-c3nn(Cc4ccccc4F)c4ncccc34)ncc21 (stereo not shown) [Example 17, 2-[1-(2-Fluorobenzyl)-1H-pyrazolo[3,4-b]pyridin-3-yl]-5-hydroxy-5-methyl-5,7-dihydro-6H-pyrrolo[2,3-d]pyrimidin-6-one] | 0.1 µM | 0.013 µM
13 | O=C(O)CC1(O)C(=O)Nc2nc(-c3nn(Cc4ccccc4F)c4ncccc34)ncc21 (stereo not shown) [Example 25, {2-[1-(2-Fluorobenzyl)-1H-pyrazolo[3,4-b]pyridin-3-yl]-5-hydroxy-6-oxo-6,7-dihydro-5H-pyrrolo[2,3-d]pyrimidin-5-yl}acetic acid] | 1.0 µM | 
14 | CC1(C)C(=O)Nc2nc(-c3nn(Cc4cccc(F)c4F)c4ncccc34)ncc21 [Example 11, 2-[1-(2,3-Difluorobenzyl)-1H-pyrazolo[3,4-b]pyridin-3-yl]-5,5-dimethyl-5,7-dihydro-6H-pyrrolo[2,3-d]pyrimidin-6-one] | 0.03 µM | 0.004 µM
15 | O=C1Nc2nc(-c3nn(Cc4ccccc4F)c4ncccc34)ncc2C1=O [Example 16, 2-[1-(2-Fluorobenzyl)-1H-pyrazolo[3,4-b]pyridin-3-yl]-5H-pyrrolo[2,3-d]pyrimidine-5,6(7H)-dione] | 1.0 µM | 
16 | O=C1Nc2nc(-c3nn(Cc4ccccc4F)c4ncccc34)ncc2C12CC2 [Example 5, 2′-[1-(2-Fluorobenzyl)-1H-pyrazolo[3,4-b]pyridin-3-yl]spiro[cyclopropane-1,5′-pyrrolo[2,3-d]pyrimidin]-6′(7′H)-one] | 0.03 µM | 
17 | O=C1CC(C(F)(F)F)c2cnc(-c3nn(Cc4ccccc4F)c4ncccc34)nc2N1 (stereo not shown) [Example 15, 2-[1-(2-Fluorobenzyl)-1H-pyrazolo[3,4-b]pyridin-3-yl]-5-(trifluoromethyl)-5,8-dihydropyrido[2,3-d]pyrimidin-7(6H)-one] | 0.3 µM | 
18 | COC(=O)C(C)(C)c1nnc(-c2nn(Cc3c(F)ccc(F)c3F)c3ncc(F)cc23)nc1O [Example 82A, Methyl 2-{3-[5-fluoro-1-(2,3,6-trifluorobenzyl)-1H-pyrazolo[3,4-b]pyridin-3-yl]-5-hydroxy-1,2,4-triazin-6-yl}-2-methylpropanoate] | 0.3 µM | 
19 | CC1(C)C(=O)Nc2nc(-c3nn(Cc4c(F)ccc(F)c4F)c4ncc(F)cc34)nnc21 [Example 29, 3-[5-Fluoro-1-(2,3,6-trifluorobenzyl)-1H-pyrazolo[3,4-b]pyridin-3-yl]-7,7-dimethyl-5,7-dihydro-6H-pyrrolo[2,3-e][1,2,4]triazin-6-one] | 0.1 µM | 
20 | CC1(C)C(=O)Nc2nc(-c3nn(Cc4ccccc4F)c4ncccc34)nc(C3CC3)c21 [Example 12, 4-Cyclopropyl-2-[1-(2-fluorobenzyl)-1H-pyrazolo[3,4-b]pyridin-3-yl]-5,5-dimethyl-5,7-dihydro-6H-pyrrolo[2,3-d]pyrimidin-6-one] | 0.1 µM | 
21 | O=C1Cc2nnc(-c3nn(Cc4ccccc4F)c4ncccc34)nc2N1 [Example 6, 3-[1-(2-Fluorobenzyl)-1H-pyrazolo[3,4-b]pyridin-3-yl]-5,7-dihydro-6H-pyrrolo[2,3-e][1,2,4]-triazin-6-one] | 0.03 µM | 

Reference: US9216978B2, “Ring-fused pyrimidines and triazines and use thereof for the treatment and/or prophylaxis of cardiovascular diseases” (BAYER INTELLECTUAL PROPERTY GMBH, priority 2010, dated 2015)
